Target: T1, MAP4K3 (Homo sapiens, UniProt Q8IVH8)
T1 sequence (Q8IVH8 1-894): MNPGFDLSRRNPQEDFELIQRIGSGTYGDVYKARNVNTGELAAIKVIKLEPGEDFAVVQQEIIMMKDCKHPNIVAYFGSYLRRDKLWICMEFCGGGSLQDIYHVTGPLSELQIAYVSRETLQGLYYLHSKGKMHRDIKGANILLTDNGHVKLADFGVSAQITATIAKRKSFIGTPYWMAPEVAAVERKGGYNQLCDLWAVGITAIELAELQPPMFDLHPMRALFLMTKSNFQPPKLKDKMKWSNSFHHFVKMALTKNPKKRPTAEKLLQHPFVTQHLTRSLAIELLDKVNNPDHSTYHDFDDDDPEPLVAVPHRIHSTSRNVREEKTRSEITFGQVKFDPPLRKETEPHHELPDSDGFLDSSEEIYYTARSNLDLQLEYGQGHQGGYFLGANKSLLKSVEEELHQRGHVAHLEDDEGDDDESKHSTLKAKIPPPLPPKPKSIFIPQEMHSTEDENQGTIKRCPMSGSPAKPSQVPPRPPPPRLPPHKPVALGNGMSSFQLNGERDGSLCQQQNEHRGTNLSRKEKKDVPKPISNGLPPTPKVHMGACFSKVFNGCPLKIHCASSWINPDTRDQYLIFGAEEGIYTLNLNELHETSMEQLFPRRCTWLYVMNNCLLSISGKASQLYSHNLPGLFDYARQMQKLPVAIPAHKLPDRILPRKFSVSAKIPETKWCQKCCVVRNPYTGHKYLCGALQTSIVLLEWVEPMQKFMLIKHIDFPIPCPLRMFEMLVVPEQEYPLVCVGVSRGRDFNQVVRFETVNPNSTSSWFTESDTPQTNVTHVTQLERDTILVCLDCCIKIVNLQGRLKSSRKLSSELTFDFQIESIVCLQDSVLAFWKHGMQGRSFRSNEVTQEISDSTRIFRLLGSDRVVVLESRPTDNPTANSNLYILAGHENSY
Experiment: Kinase specificity assay (33P phosphoryl transfer, LCCA or AlphaScreen)
Type: biochemical
Settings: ATP close to KM; read-out: MAP4K3 inhibition, IC50
Procedure: Kinase activity and compound inhibition are investigated using one or more of the three assay formats described below. The ATP concentrations for each assay are selected to be close to the Michaelis-Menten constant (KM) for each individual kinase. Dose-response experiments are performed at 10 different inhibitor concentrations in a 384-well plate format. The data are fitted to the following four-parameter equation: Y=Min+(Max−Min)/(1+(X/IC50)^H) where Y is the observed signal, X is the inhibitor concentration, Min is the background signal in the absence of enzyme (0% enzyme activity), Max is the signal in the absence of inhibitor (100% enzyme activity), IC50 is the inhibitor concentration at 50% enzyme inhibition and H represents the empirical Hill's slope to measure the cooperativity. Typically H is close to unity. ^33P Phosphoryl Transfer Assay:
Greiner 384-well white, clear bottom, high binding plates are coated with 2 μg/well of protein or peptide substrate in a 50 μL volume overnight at ambient temperature. The coating buffer typically contains 40 μg/mL substrate, 22.5 mM Na2CO3, 27.5 mM NaHCO3, 150 mM NaCl and 3 mM NaN3. The coating solution is aspirated and the plates are washed once with 50 μL of assay buffer and padded dry. Subsequently compounds and enzymes are mixed with γ^33P-ATP (3.3 μCi/nmol) in a total volume of 20 uL in suitable assay buffers. The mixture is incubated at ambient temperature for 1.5-2.5 hrs and terminated by aspiration using a Molecular Devices EMBLA 96-head plate washer. The plates are subsequently washed 6-12 times with PBST or TBS buffer. Scintillation fluid (50 μl/well) is then added, the plates are sealed and activity assessed by liquid scintillation spectrometry using a Perkin Elmer MicroBeta TriLux.
In the LCCA assays, kinase activity is measured as the percent ATP consumed following the kinase reaction using luciferase-luciferin-coupled chemiluminescence. Greiner 384-well white, clear bottom, medium binding plates are used for LCCA. Briefly, the kinase reaction is initiated by mixing compounds, ATP and kinase in a 20 uL volume. The mixture is incubated at ambient temperature for 2-4 hrs. At the end of the kinase reaction, a 20 uL luciferase-luciferin mix is added and the chemiluminescent signal is read using a Wallac Victor^2 reader. The luciferase-luciferin mix consists of 50 mM HEPES, pH 7.8, 8.5 ug/mL oxalic acid (pH 7.8), 5 (or 50) mM DTT, 0.4% Triton X-100, 0.25 mg/mL coenzyme A, 63 uM AMP, 28 ug/mL luciferin and 40,000 units of light/mL luciferase. For the LCCA assays, total ATP consumption has been standardized to 25-45% and the IC50 values correlates well with those determined by radiometric assays.
AlphaScreen technology is a proximity assay which utilizes the increase in fluorescent signal when donor and acceptor beads are close in proximity. Biotinylated poly(Glu,Tyr) 4:1 is used as the kinase substrate, in conjunction with streptavidin-coated donor beads and anti-phosphortyrosine antibody PY100-coated acceptor beads. Upon phosphorylation, the peptide substrate can bind to both donor and acceptor beads giving rise to an increase in fluorescence. Compounds, ATP, biotinylated poly(Glu, Tyr) and kinases are mixed in a volume of 20 uL for 1 hr at ambient temperature using Greiner 384-well white clear bottom medium binding plates. Following incubation a 10 uL solution containing […] AlphaScreen beads, 75 mM Hepes, pH 7.4, 300 mM NaCl, 120 mM EDTA, 0.3% BSA and 0.03% Tween-20 is added to each well. After 2-16 hr incubation of the beads, plates are read in a Perkin Elmer AlphaQuest reader. The IC50 values correlates well with those of radiometric assays.

In the case of NC(=O)c1nc(-c2cccc3ccccc23)cnc1N [Example 2, 3-Amino-6-naphthalen-1-ylpyrazine-2-carboxamide], the IC50 is reported as under 0.05 µM.

— patent US7704995B2 (Exelixis, Inc., priority 2003, dated 2010)
